Values joined by “and” are separate entries in the source; they are usually repeats but may differ in a detail not shown here. Identical values can stand only once. Inconclusive results are not listed.

In the assay the test system is Lewis lung carcinoma i.m., BDF1 mice, T/C %. The experiment in a line: NCI In Vivo Anticancer Drug Screen. Data for tumor model Lewis Lung Carcinoma (intramuscular) in B6D2F1 (BDF1) mice. A digest of the protocol: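 Compound given to mice with transplantable tumours; survival or tumour size compared against the vehicle control group, reported as T divided by C.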
Setting [1] is: endpoint: median survival time, dose: 0.25 mg/kg/injection, schedule: Q01DX011 (ip), vehicle: water, higher = longer survival.

On to `CC[n+]1ccc(Nc2ccc(NC(=O)c3ccc(Nc4cc[n+](CC)c5ccc(N)cc45)cc3)cc2)cc1`, for which the T/C (endpoint: mean tumor weight, dose: 0.12 mg/kg/injection, schedule: Q01DX011 (ip), vehicle: water, higher = larger tumour) is 109 % of control; the T/C (endpoint: mean tumor weight, dose: 0.25 mg/kg/injection, schedule: Q01DX011 (ip), vehicle: water, higher = larger tumour) is 83 % of control; the T/C (endpoint: mean tumor weight, dose: 0.5 mg/kg/injection, schedule: Q01DX011 (ip), vehicle: water, higher = larger tumour) is 87 % of control; the T/C (endpoint: mean tumor weight, dose: 1.0 mg/kg/injection, schedule: Q01DX011 (ip), vehicle: water, higher = larger tumour) was 100 % of control; the T/C (endpoint: mean tumor weight, dose: 2.0 mg/kg/injection, schedule: Q01DX011 (ip), vehicle: water, higher = larger tumour) was 67 % of control; the T/C (endpoint: median survival time, dose: 0.12 mg/kg/injection, schedule: Q01DX011 (ip), vehicle: water, higher = longer survival) is 88 % of control. For the same compound, the T/C is, setting by setting: under setting [1], 88 % of control; (endpoint: median survival time, dose: 0.5 mg/kg/injection, schedule: Q01DX011 (ip), vehicle: water, higher = longer survival) 92 % of control; (endpoint: median survival time, dose: 0.88 mg/kg/injection, schedule: Q01DX007 (sc), vehicle: saline, higher = longer survival) 87 % of control; (endpoint: median survival time, dose: 1.0 mg/kg/injection, schedule: Q01DX011 (ip), vehicle: water, higher = longer survival) 104 % of control; (endpoint: median survival time, dose: 1.5 mg/kg/injection, schedule: Q01DX007 (sc), vehicle: saline, higher = longer survival) 110 % of control; (endpoint: median survival time, dose: 2.0 mg/kg/injection, schedule: Q01DX011 (ip), vehicle: water, higher = longer survival) 106 % of control. Also, the T/C runs as follows: (endpoint: median survival time, dose: 2.5 mg/kg/injection, schedule: Q01DX007 (sc), vehicle: saline, higher = longer survival) 112 % of control; (endpoint: median survival time, dose: 4.1 mg/kg/injection, schedule: Q01DX007 (sc), vehicle: saline, higher = longer survival) 89 % of control; (endpoint: median survival time, dose: 6.8 mg/kg/injection, schedule: Q01DX007 (sc), vehicle: saline, higher = longer survival) 66 % of control.

Take `O=Nc1c(N=O)c(N=O)c(N=O)c(N=O)c1N=O`: the T/C is 110 % of control (endpoint: median survival time, dose: 5.0 mg/kg/injection, schedule: Q01DX011 (ip), vehicle: saline with Tween-80, higher = longer survival); 106 % of control (endpoint: median survival time, dose: 10.0 mg/kg/injection, schedule: Q01DX011 (ip), vehicle: saline with Tween-80, higher = longer survival); 115 % of control (endpoint: median survival time, dose: 20.0 mg/kg/injection, schedule: Q01DX011 (ip), vehicle: saline with Tween-80, higher = longer survival).

Regarding `COc1cc([C@@H]2c3cc4c(c(O)c3C[C@H]3COC(=O)[C@@H]32)OCO4)cc(OC)c1OC`, the T/C by setting is: (endpoint: mean tumor weight (est.), dose: 0.5 mg/kg/injection, schedule: Q01DX011 (ip), vehicle: Klucel (hydroxypropylcellulose) (HPC), higher = larger tumour) 106 % of control; (endpoint: mean tumor weight (est.), dose: 2.0 mg/kg/injection, schedule: Q01DX011 (ip), vehicle: Klucel (hydroxypropylcellulose) (HPC), higher = larger tumour) 93 % of control.

Consider `CN(C)c1nc(N(C)C)nc(N(C)C)n1`, for which the T/C was 68 % of control (endpoint: mean tumor weight (est.), dose: 25.0 mg/kg/injection, schedule: Q01DX011 (ip), vehicle: saline with Tween-80, higher = larger tumour); 97 % of control (endpoint: mean tumor weight (est.), dose: 50.0 mg/kg/injection, schedule: Q01DX011 (ip), vehicle: saline with Tween-80, higher = larger tumour); 37 % of control (endpoint: mean tumor weight (est.), dose: 100.0 mg/kg/injection, schedule: Q01DX011 (ip), vehicle: saline with Tween-80, higher = larger tumour); 68 % of control (endpoint: mean tumor weight, dose: 62.5 mg/kg/injection, schedule: Q01DX011 (ip), vehicle: steriod suspending solution, higher = larger tumour); 63 % of control (endpoint: mean tumor weight, dose: 125.0 mg/kg/injection, schedule: Q01DX011 (ip), vehicle: steriod suspending solution, higher = larger tumour); 100 % of control (endpoint: median survival time, dose: 62.5 mg/kg/injection, schedule: Q01DX011 (ip), vehicle: steriod suspending solution, higher = longer survival). Under “endpoint: median survival time, dose: 125.0 mg/kg/injection, schedule: Q01DX011 (ip), vehicle: steriod suspending solution, higher = longer survival”, the T/C is 104 % of control.

For `O=c1[nH]cc(F)c(=O)[nH]1`, the T/C by setting is: (endpoint: mean tumor weight (est.), dose: 10.0 mg/kg/injection, schedule: Q01DX011 (ip), vehicle: saline with Tween-80, higher = larger tumour) 37 % of control; (endpoint: mean tumor weight (est.), dose: 20.0 mg/kg/injection, schedule: Q01DX011 (ip), vehicle: saline with Tween-80, higher = larger tumour) 9 % of control; (endpoint: mean tumor weight, dose: 5.0 mg/kg/injection, schedule: Q01DX011 (ip), vehicle: other, higher = larger tumour) 93 % of control; (endpoint: mean tumor weight, dose: 5.0 mg/kg/injection, schedule: Q01DX011 (ip), vehicle: saline, higher = larger tumour) 71 % of control; (endpoint: mean tumor weight, dose: 10.0 mg/kg/injection, schedule: Q01DX011 (ip), vehicle: other, higher = larger tumour) 46 % of control; (endpoint: mean tumor weight, dose: 10.0 mg/kg/injection, schedule: Q01DX011 (ip), vehicle: saline, higher = larger tumour) 51 % of control and 57 % of control. Further, the T/C is 18 % of control (endpoint: mean tumor weight, dose: 20.0 mg/kg/injection, schedule: Q01DX011 (ip), vehicle: other, higher = larger tumour); 5 % of control (endpoint: mean tumor weight, dose: 20.0 mg/kg/injection, schedule: Q01DX011 (ip), vehicle: saline, higher = larger tumour); 100 % of control (endpoint: median survival time, dose: 5.0 mg/kg/injection, schedule: Q01DX011 (ip), vehicle: other, higher = longer survival); 112 % of control (endpoint: median survival time, dose: 6.3 mg/kg/injection, schedule: Q04DX004 (ip), vehicle: saline, higher = longer survival); 112 % of control (endpoint: median survival time, dose: 10.0 mg/kg/injection, schedule: Q01DX009 (ip), vehicle: saline, higher = longer survival); 96 % of control (endpoint: median survival time, dose: 10.0 mg/kg/injection, schedule: Q01DX011 (ip), vehicle: other, higher = longer survival). The T/C is, setting by setting: (endpoint: median survival time, dose: 12.5 mg/kg/injection, schedule: Q04DX004 (ip), vehicle: saline, higher = longer survival) 116 % of control; (endpoint: median survival time, dose: 20.0 mg/kg/injection, schedule: Q01DX009 (ip), vehicle: saline, higher = longer survival) 119 % of control; (endpoint: median survival time, dose: 20.0 mg/kg/injection, schedule: Q01DX011 (ip), vehicle: other, higher = longer survival) 122 % of control; (endpoint: median survival time, dose: 25.0 mg/kg/injection, schedule: Q04DX004 (ip), vehicle: saline, higher = longer survival) 108 % of control; (endpoint: median survival time, dose: 50.0 mg/kg/injection, schedule: Q04DX004 (ip), vehicle: saline, higher = longer survival) 89 % of control.

With `Cc1c2ccncc2c(C)c2c1[nH]c1ccccc12`, the T/C reads like this: (endpoint: median survival time, dose: 1.56 mg/kg/injection, schedule: Q01DX011 (ip), vehicle: water, higher = longer survival) 100 % of control; (endpoint: median survival time, dose: 3.12 mg/kg/injection, schedule: Q01DX011 (ip), vehicle: water, higher = longer survival) 100 % of control; (endpoint: median survival time, dose: 6.25 mg/kg/injection, schedule: Q01DX011 (ip), vehicle: water, higher = longer survival) 108 % of control.

With `O=C[C@@H](CO)O[C@H](C=O)n1cnc2c(=O)[nH]cnc21`, the T/C by setting is: (endpoint: mean tumor weight, dose: 37.5 mg/kg/injection, schedule: Q01DX011 (ip), vehicle: saline, higher = larger tumour) 53 % of control; (endpoint: mean tumor weight, dose: 39.0 mg/kg/injection, schedule: Q01DX011 (ip), vehicle: saline, higher = larger tumour) 49 % of control; (endpoint: mean tumor weight, dose: 65.0 mg/kg/injection, schedule: Q01DX011 (ip), vehicle: saline, higher = larger tumour) 74 % of control; (endpoint: mean tumor weight, dose: 75.0 mg/kg/injection, schedule: Q01DX011 (ip), vehicle: saline, higher = larger tumour) 71 % of control; (endpoint: mean tumor weight, dose: 108.0 mg/kg/injection, schedule: Q01DX011 (ip), vehicle: saline, higher = larger tumour) 60 % of control; (endpoint: mean tumor weight, dose: 150.0 mg/kg/injection, schedule: Q01DX011 (ip), vehicle: saline, higher = larger tumour) 46 % of control. The T/C is, setting by setting: (endpoint: median survival time, dose: 39.0 mg/kg/injection, schedule: Q01DX011 (ip), vehicle: saline, higher = longer survival) 115 % of control; (endpoint: median survival time, dose: 65.0 mg/kg/injection, schedule: Q01DX011 (ip), vehicle: saline, higher = longer survival) 115 % of control; (endpoint: median survival time, dose: 75.0 mg/kg/injection, schedule: Q01DX011 (ip), vehicle: saline, higher = longer survival) 113 % of control; (endpoint: median survival time, dose: 108.0 mg/kg/injection, schedule: Q01DX011 (ip), vehicle: saline, higher = longer survival) 103 % of control.

In the case of `CC/C(=C(/CC)c1ccc(O)cc1)c1ccc(O)cc1`, the T/C (endpoint: mean tumor weight, dose: 25.0 mg/kg/injection, schedule: Q01DX011 (ip), vehicle: steriod suspending solution, higher = larger tumour) is 43 % of control; the T/C (endpoint: mean tumor weight, dose: 50.0 mg/kg/injection, schedule: Q01DX011 (ip), vehicle: steriod suspending solution, higher = larger tumour) was 29 % of control; the T/C (endpoint: mean tumor weight, dose: 100.0 mg/kg/injection, schedule: Q01DX011 (ip), vehicle: steriod suspending solution, higher = larger tumour) is 14 % of control and 34 % of control; the T/C (endpoint: median survival time, dose: 25.0 mg/kg/injection, schedule: Q01DX011 (ip), vehicle: steriod suspending solution, higher = longer survival) is 86 % of control; the T/C (endpoint: median survival time, dose: 25.0 mg/kg/injection, schedule: Q01DX011 (ip), vehicle: water, higher = longer survival) is 91 % of control and 97 % of control; the T/C (endpoint: median survival time, dose: 50.0 mg/kg/injection, schedule: Q01DX011 (ip), vehicle: steriod suspending solution, higher = longer survival) was 106 % of control. The T/C is 92 % of control (endpoint: median survival time, dose: 50.0 mg/kg/injection, schedule: Q01DX011 (ip), vehicle: water, higher = longer survival); 104 % of control (endpoint: median survival time, dose: 100.0 mg/kg/injection, schedule: Q01DX011 (ip), vehicle: steriod suspending solution, higher = longer survival); 97 % of control and 101 % of control (endpoint: median survival time, dose: 100.0 mg/kg/injection, schedule: Q01DX011 (ip), vehicle: water, higher = longer survival).

Take `COc1cccc2c1C(=O)c1c(O)c3c(c(O)c1C2=O)C[C@@](O)(C(=O)CO)C[C@@H]3OC1CC(N)C(O)C(C)O1` (stereo partly specified): the T/C is 100 % of control and 120 % of control under setting [1]; 100 % of control and 102 % of control (endpoint: median survival time, dose: 0.65 mg/kg/injection, schedule: Q03HX008 (ip), vehicle: water, higher = longer survival); 123 % of control (endpoint: median survival time, dose: 1.08 mg/kg/injection, schedule: Q03HX008 (ip), vehicle: water, higher = longer survival); 26 % of control (endpoint: median survival time, dose: 1.8 mg/kg/injection, schedule: Q03HX008 (ip), vehicle: water, higher = longer survival); 17 % of control (endpoint: median survival time, dose: 3.0 mg/kg/injection, schedule: Q03HX008 (ip), vehicle: water, higher = longer survival).
